Patent US20240092802A1, “MU-OPIOID RECEPTOR AGONISTS AND USES THEREFOR” (Kures, Inc., priority 2020, published 2024)
pEC50: −log10 of the molar value. Structures can show the parent of a compound that is named as a salt. Where two headings read alike, the source gives them in different places.

Target: Human MOR (Homo sapiens (Human), UniProt P35372)
Experiment: BRET G protein activation assay, human MOR in transfected HEK-293T cells
Format: cell-based
Excerpt: Transfection. Human or mouse MOR cDNA was transfected alongside GαoB with RLuc8 inserted at position 91 (GαoB-RLuc8), Gβ1 (β1), and Gγ2 fused to the full-length mVenus at its N terminus (mVenus γ2) into HEK-293T cells (5×10^6 cells/plate) in 10-cm dishes using PEI (Polysciences Inc.; Warrington, PA) in a 1:1 ratio diluted in Opti-MEM (Life Technologies Corp.; Grand Island, NY) to assay for G protein activation as described previously (Rives, M.-L. et al. J. Biol. Chem. 2012, 287, 27050-4; Negri, A.; Rives, M.-L.; Caspers, M. J. et al. J. Chem. Inf. Model. 2013, 53, 521-526). Cells were maintained in the Dulbecco's Modified Eagle Medium (high glucose #11965; Life Technologies) supplemented with 10% FBS (Premium Select, Atlanta Biologicals; Atlanta, GA) and 100 U/mL penicillin and 100 μg/mL streptomycin (#15140, Life Technologies). After 24 hours the media was changed, and the experiment was performed 24 hours later (48 hours after transfection).
BRET. Transfected cells were dissociated and resuspended in phosphate-buffered saline (PBS). Approximately 200,000 cells/well were added to a black-framed, white well 96-well plate (#60050; Perkin Elmer; Waltham, MA). The microplate was centrifuged and the cells were resuspended in PBS. Then 5 μM of the luciferase substrate coelenterazine H was added to each well for 5 minutes. Following coelenterazine H addition, ligands were added and the BRET signal was measured at 5 minutes on a PHERAstar FS plate reader. Quantification of the BRET signal required calculating the ratio of the light emitted by the energy acceptor, mVenus (510-540 nm), over the light emitted by the energy donor, RLuc8 (485 nm). […] Dose response curves were fit using three-parameter logistics equation in GraphPad Prism 6.

[1] = BRET G protein activation, HEK-293T, mean ± SEM, read-out: EC50 Human MOR

Chain of Human MOR (P35372 whole entry): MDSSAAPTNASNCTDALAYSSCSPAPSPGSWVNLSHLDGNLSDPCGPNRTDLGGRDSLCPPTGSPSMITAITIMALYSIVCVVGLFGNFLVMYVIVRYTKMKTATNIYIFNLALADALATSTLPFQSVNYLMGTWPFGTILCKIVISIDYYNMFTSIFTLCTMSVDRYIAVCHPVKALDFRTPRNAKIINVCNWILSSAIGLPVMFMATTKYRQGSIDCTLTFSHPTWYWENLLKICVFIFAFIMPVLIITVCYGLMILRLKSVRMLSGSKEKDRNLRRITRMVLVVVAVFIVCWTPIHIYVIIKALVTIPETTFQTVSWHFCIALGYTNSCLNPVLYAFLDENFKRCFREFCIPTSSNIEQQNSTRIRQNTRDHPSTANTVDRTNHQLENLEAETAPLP

Compound	pEC50 [1]	pEC50
CCSc1ccc2c(c1)S(=O)(=O)N(C)c1ccccc1C2NCCCOC (stereo not shown) [compound 64, 3-(Ethylthio)-11-((3-methoxypropyl)amino)-6-methyl-6,11-dihydrodibenzo[c,f][1,2]thiazepine 5,5-dioxide]	> 5.00	
CCN1c2ccccc2C(NCCCOC)c2ccccc2S1(=O)=O (stereo not shown) [compound 65, 6-Ethyl-11-((3-methoxypropyl)amino)-6,11-dihydrodibenzo[c,f][1,2]thiazepine 5,5-dioxide]	< 4.70	
COC(C)CCNC1c2ccccc2N(C)S(=O)(=O)c2cc(Cl)ccc21 (stereo not shown) [compound 67, 3-Chloro-11-((3-methoxybutyl)amino)-6-methyl-6,11-dihydrodibenzo [c,f][1,2]thiazepine 5,5-dioxide]	> 5.00	
COCC(C)CNC1c2ccccc2N(C)S(=O)(=O)c2cc(Cl)ccc21 (stereo not shown) [compound 68, 3-Chloro-11-((3-methoxy-2-methylpropyl)amino)-6-methyl-6,11-dihydrodibenzo[c,f][1,2]thiazepine 5,5-dioxide]	> 5.00	
COCCCNC1c2ccc(Cl)cc2N(C)S(=O)(=O)c2ccccc21 (stereo not shown) [compound 69, 8-Chloro-11-((3-methoxypropyl)amino)-6-methyl-6,11-dihydrodibenzo [c,f][1,2]thiazepine 5,5-dioxide]	> 4.70	
COCCCNC1c2ccc(Br)cc2S(=O)(=O)N(C)c2ccsc21 (stereo not shown) [compound 72, 7-Bromo-10-((3-methoxypropyl)amino)-4-methyl-4, 10-dihydrobenzo[f]thieno[3,2-c][1,2]thiazepine 5,5-dioxide]	> 5.00	
CCOCCCNC1c2ccc(Br)cc2S(=O)(=O)N(C)c2ccsc21 (stereo not shown) [compound 73, 7-Bromo-10-((3-ethoxypropyl)amino)-4-methyl-4, 10-dihydrobenzo[f]thieno[3,2-c][1,2]thiazepine 5,5-dioxide]	> 5.00	
CCOC(=O)CCCCCCNC1c2ccc(Br)cc2S(=O)(=O)N(C)c2ccsc21 (stereo not shown) [compound 74, Ethyl 7-((7-bromo-4-methyl-5,5-dioxido-4, 10-dihydrobenzo[f]thieno[3,2-c][1,2]thiazepin-10-yl)amino)heptanoate]	> 5.00	
COCCCNC1c2ccccc2N(C)S(=O)(=O)c2cc(OCc3ccccc3)ccc21 (stereo not shown) [compound 75, 3-(Benzyloxy)-11-((3-methoxypropyl)amino)-6-methyl-6,11-dihydrodibenzo[c,f][1,2]thiazepine 5,5-dioxide]	< 4.70	
COCCCNC1c2ccc(Cl)cc2S(=O)(=O)N(C)c2ccsc21 (stereo not shown) [compound 77, 7-Chloro-10-((3-methoxypropyl)amino)-4-methyl-4, 10-dihydrobenzo[f]thieno[3,2-c][1,2]thiazepine 5,5-dioxide]	> 5.00	
CCOCCCNC1c2ccc(Cl)cc2S(=O)(=O)N(C)c2ccsc21 (stereo not shown) [compound 78, 7-Chloro-10-((3-ethoxypropyl)amino)-4-methyl-4, 10-dihydrobenzo[f]thieno[3,2-c][1,2]thiazepine 5,5-dioxide]	> 5.00	
CCOC(=O)CCCCCCNC1c2ccc(Cl)cc2S(=O)(=O)N(C)c2ccsc21 (stereo not shown) [compound 79, Ethyl 7-((7-chloro-4-methyl-5,5-dioxido-4, 10-dihydrobenzo[f]thieno[3,2-c][1,2]thiazepin-10-yl)amino)heptanoate]	> 5.00	
CN1c2ccccc2C(NCCCCCCC(=O)O)c2ccc(I)cc2S1(=O)=O (stereo not shown) [compound 84, 7-((3-Iodo-6-methyl-5,5-dioxido-6,11-dihydrodibenzo [c,f][1,2]thiazepin-11-yl)amino)heptanoic acid hydrochloride salt]		7.40
